Reference: PubChem BioAssay AID276 (DTP/NCI, 2004)
Values joined by “and” are separate entries in the source; they are usually repeats but may differ in a detail not shown here. Equal values may be shown once. Toxic doses and inconclusive results are not listed.

Test system: B6C3F1 mice, Lewis lung carcinoma iv, survival T/C
Assay: NCI In Vivo Anticancer Drug Screen. Data for tumor model Lewis Lung Carcinoma (intravenous) in B6C3F1 mice
Conditions: endpoint: median survival time, higher = longer survival
Method in brief: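 Read-out is survival, expressed as the treated-group measurement over the vehicle control-group measurement. Animals bore a transplantable tumor and were given compound.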

[1] = dose: 12.5 mg/kg/injection, schedule: Q01DX009 (ip), vehicle: saline with Tween-80
[2] = dose: 25.0 mg/kg/injection, schedule: Q01DX009 (ip), vehicle: saline with Tween-80
[3] = dose: 50.0 mg/kg/injection, schedule: Q01DX009 (ip), vehicle: saline with Tween-80
[4] = dose: 100.0 mg/kg/injection, schedule: Q01DX009 (ip), vehicle: saline with Tween-80
[5] = dose: 200.0 mg/kg/injection, schedule: Q01DX009 (ip), vehicle: saline with Tween-80
[6] = dose: 6.25 mg/kg/injection, schedule: Q01DX009 (ip), vehicle: saline with Tween-80
[7] = dose: 6.25 mg/kg/injection, schedule: Q01DX009 (ip), vehicle: saline
[8] = dose: 12.5 mg/kg/injection, schedule: Q01DX009 (ip), vehicle: saline
[9] = dose: 25.0 mg/kg/injection, schedule: Q01DX009 (ip), vehicle: saline
[10] = dose: 50.0 mg/kg/injection, schedule: Q01DX009 (ip), vehicle: saline

Compound: COC(=O)[C@@]12OC[C@]34[C@H]([C@@H](O)[C@@H]1O)[C@@]1(C)CC(=O)C(O)=C(C)[C@@H]1C[C@H]3OC(=O)[C@H](OC(=O)/C=C(\C)C(C)C)[C@@H]24
- T/C (dose: 0.25 mg/kg/injection, schedule: Q01DX009 (ip), vehicle: saline + alcohol): 102 % of control
- T/C (dose: 0.5 mg/kg/injection, schedule: Q01DX009 (ip), vehicle: saline + alcohol): 104 % of control
- T/C (dose: 1.0 mg/kg/injection, schedule: Q01DX009 (ip), vehicle: saline + alcohol): 107 % of control

Compound: C1CN1c1nc(N2CC2)nc(N2CC2)n1
- T/C (dose: 0.06 mg/kg/injection, schedule: Q01DX009 (ip), vehicle: suspension in saline): 96 % of control
- T/C (dose: 0.12 mg/kg/injection, schedule: Q01DX009 (ip), vehicle: suspension in saline): 92 % of control
- T/C (dose: 0.25 mg/kg/injection, schedule: Q01DX009 (ip), vehicle: suspension in saline): 101 % of control
- T/C (dose: 0.5 mg/kg/injection, schedule: Q01DX009 (ip), vehicle: suspension in saline): 106 % of control
- T/C (dose: 1.0 mg/kg/injection, schedule: Q01DX009 (ip), vehicle: suspension in saline): 121 % of control

Compound: CCCCCC1c2cc(O)ccc2OC1N1CCOCC1 (centres undefined)
- T/C (dose: 6.0 mg/kg/injection, schedule: Q01DX009 (ip), vehicle: saline with Tween-80): 96 % of control
- T/C (dose: 12.0 mg/kg/injection, schedule: Q01DX009 (ip), vehicle: saline with Tween-80): 104 % of control
- T/C [1]: 97 % of control
- T/C [2]: 91 % of control
- T/C [3]: 103 % of control and 104 % of control
- T/C [4]: 94 % of control and 96 % of control
- T/C [5]: 90 % of control and 99 % of control

Compound: C=C(OP(=O)(OC)OC)Sc1ccccc1C
- T/C (dose: 0.06 mg/kg/injection, schedule: Q01DX009 (ip), vehicle: Klucel (hydroxypropylcellulose) (HPC)): 105 % of control
- T/C (dose: 0.12 mg/kg/injection, schedule: Q01DX009 (ip), vehicle: Klucel (hydroxypropylcellulose) (HPC)): 104 % of control
- T/C (dose: 0.25 mg/kg/injection, schedule: Q01DX009 (ip), vehicle: Klucel (hydroxypropylcellulose) (HPC)): 110 % of control
- T/C (dose: 0.37 mg/kg/injection, schedule: Q01DX009 (ip), vehicle: Klucel (hydroxypropylcellulose) (HPC)): 100 % of control
- T/C (dose: 0.5 mg/kg/injection, schedule: Q01DX009 (ip), vehicle: Klucel (hydroxypropylcellulose) (HPC)): 89 % of control
- T/C (dose: 0.75 mg/kg/injection, schedule: Q01DX009 (ip), vehicle: Klucel (hydroxypropylcellulose) (HPC)): 91 % of control

Compound: O=CCC(O)C(O)C(O)CO (centres undefined)
- T/C (dose: 300.0 mg/kg/injection, schedule: Q01DX009 (ip), vehicle: suspension in saline): 102 % of control
- T/C (dose: 600.0 mg/kg/injection, schedule: Q01DX009 (ip), vehicle: suspension in saline): 108 % of control
- T/C (dose: 1200.0 mg/kg/injection, schedule: Q01DX009 (ip), vehicle: suspension in saline): 114 % of control
- T/C (dose: 1800.0 mg/kg/injection, schedule: Q01DX009 (ip), vehicle: suspension in saline): 117 % of control
- T/C (dose: 2400.0 mg/kg/injection, schedule: Q01DX009 (ip), vehicle: suspension in saline): 106 % of control

Compound: NCCCC(N)(C(=O)O)C(F)F (centres undefined)
- T/C (dose: 50.0 mg/kg/injection, schedule: Q01DX009 (ip), vehicle: distilled water + alcohol): 100 % of control
- T/C (dose: 100.0 mg/kg/injection, schedule: Q01DX009 (ip), vehicle: distilled water + alcohol): 104 % of control
- T/C (dose: 200.0 mg/kg/injection, schedule: Q01DX009 (ip), vehicle: distilled water + alcohol): 105 % of control
- T/C (dose: 400.0 mg/kg/injection, schedule: Q01DX009 (ip), vehicle: distilled water + alcohol): 103 % of control
- T/C (dose: 800.0 mg/kg/injection, schedule: Q01DX009 (ip), vehicle: distilled water + alcohol): 96 % of control

Compound: CC1(C)CC1(Br)Br
- T/C [6]: 99 % of control
- T/C [1]: 96 % of control
- T/C [2]: 99 % of control
- T/C [3]: 100 % of control
- T/C [4]: 115 % of control
- T/C [5]: 100 % of control

Compound: S=c1nc[nH]c2nc[nH]c12
- T/C (dose: 15.0 mg/kg/injection, schedule: Q01DX009 (ip), vehicle: Klucel (hydroxypropylcellulose) (HPC)): 107 % of control
- T/C (dose: 30.0 mg/kg/injection, schedule: Q01DX009 (ip), vehicle: Klucel (hydroxypropylcellulose) (HPC)): 116 % of control

Compound: O=P1(N(CCCl)CCCl)NCCCO1 (centres undefined)
- T/C (dose: 6.0 mg/kg/injection, schedule: Q01DX009 (ip), vehicle: saline): 105 % of control
- T/C [7]: 108 % of control
- T/C (dose: 12.0 mg/kg/injection, schedule: Q01DX009 (ip), vehicle: saline): 116 % of control
- T/C [8]: 123 % of control
- T/C (dose: 25.0 mg/kg/injection, schedule: Q01DX001 (ip), vehicle: saline): 110 % of control
- T/C [9]: 191 % of control
- T/C (dose: 37.0 mg/kg/injection, schedule: Q01DX001 (ip), vehicle: saline): 120 % of control
- T/C (dose: 48.4 mg/kg/injection, schedule: Q01DX001 (ip), vehicle: saline): 103 % of control
- T/C (dose: 50.0 mg/kg/injection, schedule: Q01DX001 (ip), vehicle: saline): 116 % of control and 122 % of control
- T/C [10]: 337 % of control
- T/C (dose: 64.4 mg/kg/injection, schedule: Q01DX001 (ip), vehicle: saline): 115 % of control
- T/C (dose: 75.0 mg/kg/injection, schedule: Q01DX001 (ip), vehicle: saline): 171 % of control
- T/C (dose: 100.0 mg/kg/injection, schedule: Q01DX001 (ip), vehicle: saline): 151 % of control and 152 % of control and 188 % of control
- T/C (dose: 150.0 mg/kg/injection, schedule: Q01DX001 (ip), vehicle: saline): 349 % of control
- T/C (dose: 300.0 mg/kg/injection, schedule: Q01DX001 (ip), vehicle: saline): 230 % of control
- T/C (dose: 400.0 mg/kg/injection, schedule: Q01DX001 (ip), vehicle: saline): 312 % of control

Compound: CSC(SC)=C1C(=O)NC(=O)NC1=O
- T/C (dose: 3.12 mg/kg/injection, schedule: Q01DX009 (ip), vehicle: saline): 103 % of control
- T/C [7]: 105 % of control
- T/C [8]: 96 % of control
- T/C [9]: 112 % of control

Compound: C=C1N(C)c2ccccc2C1(C)C
- T/C (dose: 3.12 mg/kg/injection, schedule: Q01DX009 (ip), vehicle: saline with Tween-80): 107 % of control
- T/C [6]: 102 % of control
- T/C [1]: 109 % of control
- T/C [2]: 98 % of control
- T/C [3]: 110 % of control

Compound: O=NN(CCF)C(=O)N[C@H]1CCCC[C@H]1O
- T/C (dose: 2.5 mg/kg/injection, schedule: Q01DX009 (ip), vehicle: saline): 105 % of control
- T/C (dose: 5.0 mg/kg/injection, schedule: Q01DX009 (ip), vehicle: saline): 121 % of control
- T/C (dose: 10.0 mg/kg/injection, schedule: Q01DX009 (ip), vehicle: saline): 173 % of control
- T/C (dose: 20.0 mg/kg/injection, schedule: Q01DX009 (ip), vehicle: saline): 312 % of control

Compound: CNC(=O)/C=C/C1=CN2C(=O)c3ccc(C)c(O)c3NC(OC)C2C1 (centres undefined)
- T/C (dose: 0.01 mg/kg/injection, schedule: Q01DX009 (ip), vehicle: saline): 90 % of control and 113 % of control
- T/C (dose: 0.02 mg/kg/injection, schedule: Q01DX009 (ip), vehicle: saline): 93 % of control
- T/C (dose: 0.03 mg/kg/injection, schedule: Q01DX009 (ip), vehicle: saline): 96 % of control
- T/C (dose: 0.05 mg/kg/injection, schedule: Q01DX009 (ip), vehicle: saline): 97 % of control and 107 % of control
- T/C (dose: 0.1 mg/kg/injection, schedule: Q01DX009 (ip), vehicle: saline): 90 % of control and 103 % of control

Compound: O=C(O)CSc1c(Cl)c(=O)oc2ccc(Cl)cc12
- T/C (dose: 6.25 mg/kg/injection, schedule: Q01DX009 (ip), vehicle: Klucel (hydroxypropylcellulose) (HPC)): 93 % of control
- T/C (dose: 12.5 mg/kg/injection, schedule: Q01DX009 (ip), vehicle: Klucel (hydroxypropylcellulose) (HPC)): 93 % of control
- T/C (dose: 25.0 mg/kg/injection, schedule: Q01DX009 (ip), vehicle: Klucel (hydroxypropylcellulose) (HPC)): 94 % of control
- T/C (dose: 50.0 mg/kg/injection, schedule: Q01DX009 (ip), vehicle: Klucel (hydroxypropylcellulose) (HPC)): 98 % of control
- T/C (dose: 100.0 mg/kg/injection, schedule: Q01DX009 (ip), vehicle: Klucel (hydroxypropylcellulose) (HPC)): 98 % of control

Compound: c1cc[c]([Sn]([NH]c2ncnc3[nH]cnc23)([NH]c2ncnc3[nH]cnc23)[c]2ccccc2)cc1
- T/C [8]: 103 % of control
- T/C [9]: 95 % of control
- T/C [10]: 106 % of control
- T/C (dose: 100.0 mg/kg/injection, schedule: Q01DX009 (ip), vehicle: saline): 107 % of control
- T/C (dose: 200.0 mg/kg/injection, schedule: Q01DX009 (ip), vehicle: saline): 98 % of control

Compound: COc1ccc2c(ccc3oc([N+](=O)[O-])cc32)c1
- T/C [1]: 98 % of control
- T/C [2]: 110 % of control
- T/C [3]: 104 % of control
- T/C [4]: 100 % of control

Compound: CN(N=O)C(N)=O
- T/C (dose: 3.0 mg/kg/injection, schedule: Q01DX009 (ip), vehicle: saline): 123 % of control
- T/C [9]: 107 % of control
